Data on one compound can be found in article PMC117120 (BMC Biochemistry, 2002).

Structures are written as SMILES. Positions count from the first letter of the chain named. Read-outs that look alike come from different tables or passages of the source.

In assay [1] the target is T1, wt 5-HT3ASR (Mus musculus, UniProt P23979).
T1 sequence (P23979 24-483 isoform P23979-2 limits assumed): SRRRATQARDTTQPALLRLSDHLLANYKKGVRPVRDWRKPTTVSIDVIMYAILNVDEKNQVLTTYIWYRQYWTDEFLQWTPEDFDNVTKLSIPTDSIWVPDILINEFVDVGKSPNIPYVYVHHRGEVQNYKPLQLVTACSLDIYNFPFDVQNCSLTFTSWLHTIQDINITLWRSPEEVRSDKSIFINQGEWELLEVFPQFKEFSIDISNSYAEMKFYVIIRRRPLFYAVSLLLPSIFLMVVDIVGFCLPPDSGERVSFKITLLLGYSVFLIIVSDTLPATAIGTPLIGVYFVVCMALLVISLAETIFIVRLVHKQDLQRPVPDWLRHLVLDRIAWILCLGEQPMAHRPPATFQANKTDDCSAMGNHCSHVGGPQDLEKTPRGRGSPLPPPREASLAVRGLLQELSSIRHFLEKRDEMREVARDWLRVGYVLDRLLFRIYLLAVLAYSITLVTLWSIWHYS
The note with it: for response amplitude: 4 s, representative trace.

Assay [2] addresses T2, Y140A mutant 5-HT3ASR (Mus musculus, UniProt P23979, Y141A).
T2 sequence (P23979 24-483 isoform P23979-2 Y141A): T1 sequence (P23979 24-483 isoform P23979-2 limits assumed) with Y118A
Briefly: Whole cell patch clamp, cells transfected with Y140A cDNA. Type of assay: cell-based. Particulars: 5-HT concentrations of up to 1 mM.

For assay [3], the target named is T3, Y142A mutant 5-HT3ASR (Mus musculus, UniProt P23979, Y143A).
T3 sequence (P23979 24-483 isoform P23979-2 Y143A): T1 sequence (P23979 24-483 isoform P23979-2 limits assumed) with Y120A
Briefly: Whole cell patch clamp, cells transfected with Y142A cDNA. Type of assay: cell-based. Particulars: 5-HT concentrations of up to 1 mM. (The patch-clamp technique gives a direct electrical read-out from membranes.)

Assay [4] has as its target T4, Y152A mutant 5-HT3ASR (Mus musculus, UniProt P23979, Y153A).
T4 sequence (P23979 24-483 isoform P23979-2 Y153A): T1 sequence (P23979 24-483 isoform P23979-2 limits assumed) with Y130A
Nature of the assay: Whole cell patch clamp, tsA201 cells transfected with Y152A cDNA. The assay is classed as cell-based. Particulars: for response amplitude: 8 s, representative trace.

For `NCCc1c[nH]c2ccc(O)cc12` [5-HT, serotonin], the desensitization result is “desensitized rapidly” in assay [1] and “no desensitization” in assay [4] (during the 8 s perfusion time). Further, in assay [1], the “time to peak response” value is recorded as “less than 80 ms”. Also, the response amplitude worked out at 0.03 nA in assay [1] (0.3 μM 5-HT); 0.96 nA in assay [1] (1.0 μM 5-HT); 2.5 nA in assay [1] (3.0 μM 5-HT); 4.4 nA in assay [1] (30.0 μM 5-HT); 3.9 nA in assay [1] (100.0 μM 5-HT); 0.10 nA in assay [4] (3.0 μM 5-HT). In addition, the response amplitude is given as 0.14 nA in assay [4] (100 μM 5-HT), 0.57 nA in assay [4] (300.0 μM 5-HT) and 1.0 nA in assay [4] (1.0 mM 5-HT). In addition, the “whole cell response to 5-HT” value in assay [2] and in assay [3] was “no responses” throughout. The “time for response to plateau” value in assay [4] is recorded as “several seconds”.
